For series [1] the following is noted: cited from earlier work.
Series [2] concerns Human melanoma (A375), breast cancer (MCF7), lung cancer (A549), and colon cancer (HT29) cell lines. The series is described as follows: Cell inhibition study (cell counting). It is filed as cell-based. The following applies: for cell number (relative proliferation index): 0-100 μM, FIGS. 8A through 8D; for IC50: Homo sapiens, all cell lines (A375, MCF7, A549, HT29). Here is the method: Cancer cells (0.2×10^6 cells/well) were seeded in six well-plates and, 24 h later, were treated with PTER or RES ([…]) (ethanol as solvent vehicle was at a conc. of 0.3%). Cell growth was analyzed using the Countess® Automated Cell Counter (Invitrogen). Results were expressed as relative proliferation index±SD (n=4) where control is 100.
The aim of this study was to determine whether pterostilbene causes cytotoxicity in human tumors at concentrations that are reliable under in vivo conditions; and, to identify which death-related molecular mechanisms may be activated by the compound. Human melanoma (A375), breast cancer (MCF7), lung cancer (A549), and colon cancer (HT29) cell lines were used in this set of experiments. Pterostilbene and resveratrol were used in a μM range, between 10 μM (below the IC50 for all cell lines) and 200 μM (an unachievable in vivo concentration). Cell cycle and apoptosis induction were determined by flow cytometry.
Cells from the cancer lines (0.2×10^6 cells/well) were seeded in six well-plates and, 24 h later, were treated with pterostilbene or resveratrol (0-100 μM) (ethanol as solvent vehicle was at a conc. of 0.3%). Cell growth was analyzed using the Countess® Automated Cell Counter (Invitrogen). Results were expressed as relative proliferation index±SD (n=4) where control is 100.

For series [3] the following is noted: cited from earlier work. The source holds these as a separate data set.
The subject of a further series is human tumor cells. In words: Autophagy activation (LC3-II, P62/SQSTM1, GFP-LC3). The settings on record: at bioavailable concentrations. The class given is cell-based. The text has this: In addition, there are different molecular events associating pterostilbene with autophagy activation: a) an increase of LC3-II form, indicating the processing of LC3 protein to its lapidated form; and b) an increase in P62/SQSTM1 bands and GFP-LC3 punctuation, indicating P62 accumulation and translocation of LC3 to autophagic membranes, respectively. An acute loss of tubulin organization, indicating cell cycle arrest, was also detected by immunochemistry.

Structures are written as SMILES.

Turning to `O=c1c(O)c(-c2ccc(O)c(O)c2)oc2cc(O)cc(O)c12` [QUER, quercetin], the “reduction in glomerular flow rate” value in series [1] (1400 mg QUER/m^2, the two affected patients, first 24 hours) is reported as around 20%. The tolerability entry in series [1] (daily i.v. bolus doses of 100 mg QUER/m2, human patients) is listed as “well tolerated”. In addition, the renal toxicity entry in series [1] (i.v. bolus of 1400 mg QUER/m^2 once weekly for three weeks) is “two of ten patients”.

The IC50 is the point on the concentration scale where inhibition reaches its midpoint. Low readings indicate greater potency in that assay, high ones weaker potency in that assay. In the case of `Oc1ccc(/C=C/c2cc(O)cc(O)c2)cc1` [RI, trans-3,5,4′-trihydroxystilbene, reference compound], in series [2], the “cell number (relative proliferation index)” value was “reduced cell number in a concentration- and time-dependent manner”; the IC50 was above 10 µM. Also, in series [3] (after i.v. administration of 20 mg/kg to e.g. rabbits), the “half-life in circulating blood” value was around 14.4 min.

As for `COc1cc(/C=C/c2ccc(O)cc2)cc(OC)c1` [t-PTER, trans-3,5-dimethoxy-4′-hydroxystilbene], the autophagy result in the series on human tumor cells is “activates autophagy”. Moreover, in series [2], the “inhibitory effect on human tumor cell growth versus resveratrol” value is recorded as “stronger inhibitory effect”; the “cell number (relative proliferation index)” value is “reduced cell number in a concentration- and time-dependent manner”; the IC50 is above 10 µM. In addition, in series [3] (rabbit, in vivo), the half-life in blood was around 77.9 min.

Source of the values: patent publication US20110136751A1, “Use of Polyphenols in the Treatment of Cancer” (Green Molecular, priority 2009, published 2011).
